From article PMC6554663, “Pharmaceutical Effects of Inhibiting the Soluble Epoxide Hydrolase in Canine Osteoarthritis” (Frontiers in Pharmacology, 2019)
Entries after “also recorded” stand apart in the source; their conditions may differ.

Assays:
Canine sEH = molecular target: T1, Canine sEH (Canis lupus familiaris, UniProt A0A8I3NJL8); assay: Canine sEH inhibition IC50; assay type: biochemical; details: canine enzyme partially purified from liver cytosol
T1 construct: canine enzyme was partially purified on a Q-sepharose column from liver cytosol; from tissue; host or cells: dog liver cytosol, about 10-fold purification on Q-sepharose
T1 sequence (A0A8I3NJL8 1-556): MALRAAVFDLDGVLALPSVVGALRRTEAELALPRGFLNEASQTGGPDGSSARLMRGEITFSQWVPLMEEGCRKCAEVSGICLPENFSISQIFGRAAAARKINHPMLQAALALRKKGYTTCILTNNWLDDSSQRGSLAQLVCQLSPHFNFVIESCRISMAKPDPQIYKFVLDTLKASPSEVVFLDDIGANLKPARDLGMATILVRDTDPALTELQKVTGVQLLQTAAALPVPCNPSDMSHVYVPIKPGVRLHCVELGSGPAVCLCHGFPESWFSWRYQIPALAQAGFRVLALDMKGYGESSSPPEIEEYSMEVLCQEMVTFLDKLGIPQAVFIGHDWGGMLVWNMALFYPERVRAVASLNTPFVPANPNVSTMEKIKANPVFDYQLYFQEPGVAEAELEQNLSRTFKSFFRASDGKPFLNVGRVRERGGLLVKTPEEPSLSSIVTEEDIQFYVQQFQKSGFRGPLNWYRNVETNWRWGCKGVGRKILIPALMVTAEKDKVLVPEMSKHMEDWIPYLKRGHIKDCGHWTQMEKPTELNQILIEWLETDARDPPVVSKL

aged beagle dogs with OA = assay: Tolerability, adverse events and body weight in the dog study; assay type: in vivo
Protocol: The study was conducted as a blinded, parallel matched-group design. Dogs were randomized into groups based on pretreatment pain scores and each group was randomly assigned a treatment. Prior to randomization, each dog was assessed for arthritis by radiograph to assess the severity of OA by presence of osteophytes, subchondral sclerosis or joint effusion each scored on a scale of 0 (least) to 3 (worst) for each of 12 joints. Severity of the radiograph score was included in the randomization protocol and distributed between the groups, and there were no statistical differences between the averages of each group. Individual radiograph scores can be found in Supplementary Table S2. […] Vehicle group consisted of 5 mL PEG300 in capsule. Concurrent medications were not allowed and not needed during the study.

IC50 (Canine sEH): 4.42 nM
SMILES: CN(C(=O)N[C@H]1CC[C@H](Oc2ccc(C(=O)O)cc2)CC1)c1ccc(OC(F)(F)F)cc1 [EC3039, trans-4-{4-[3-methyl-3-(4-trifluoromethoxy-phenyl)-ureido]-cyclohexyloxy}-benzoic acid]
health case noted during treatment: relation to treatment (aged beagle dogs with OA; EC3039 1 mg/kg, individual dogs, 1 mg/kg): EC3039 – 1mg/kg / Not Related; also recorded: EC3039 – 1mg/kg / Unlikely Related | health case noted during treatment: relation to treatment (aged beagle dogs with OA; EC3039 5 mg/kg, individual dog, moist dermatitis of ventral neck): EC3039 – 5mg/kg / Not Related
